This passage reports inhibition and EC50 results from patent US9090599B2, “Heteroarylmethyl amides” (Hoffman-La Roche Inc., priority 2010, dated 2015).

Broadly, the inhibition is the relative decrease from the control value, in per cent. In general, EC50 refers to the concentration needed to bring the measured effect to its halfway point.

Like-named read-outs stand apart in the source and are kept apart here.

Assay [1] concerns the target T1, human CB1 receptor (Homo sapiens, UniProt P21554).
T1 construct: expressed in transfected cells; host or cells: human embryonic kidney (HEK) cells, Semliki Forest Virus system, membrane preparations
Kind of assay: CB1 receptor affinity, [3H]-CP-55,940 displacement, HEK cell membranes. Particulars: read-out: CB1 receptor affinity [% inhibition @ 10 μM]. Format: binding. Summed up:
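Membranes from HEK cells transiently expressing human CB1 (Semliki Forest Virus system) incubated with [3H]-CP-55,940 with or without test compound. Bound and free ligand separated by glass-fibre filtration and bound radioactivity counted by scintillation. Compounds tested at 10 μM, values reported as % inhibition of radioligand binding.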

For assay [2], the system named is ABCA1 protein. In words: Detection of upregulation of ABCA1 protein in THP-1 macrophage cells (ApoA-I binding, high content imaging). The class given is cell-based. Particulars: 24 hrs with compound, AlexaFluor 647 ApoA-I binding, read-out: ABCA1 protein increasing efficacy EC50. The protocol: The ability of compounds of the invention to increase the level of ABCA1 protein is determined in replicate cultures of THP-1 macrophage cells in 96-well microplates. Cells are plated at an initial density of 100,000 cells/well in 100 μl medium and differentiated to adherent macrophages with the addition of PMA (100 nM) for 68 hrs in 10% fetal bovine serum, 3 μl/L of b-mercaptoethanol, RPMI-1640 medium. Then, cells are incubated with RPMI-1640 medium containing 1% FCS, 25 μg/ml acetylated LDL, for 24 hours at 37°. Following incubation with acetylated LDL, cells are washed twice with 50 μl PBS and incubated with 100 μl of RPMI-1640 medium containing the compound of interest solubilized in DMSO for an additional 24 hrs. The final DMSO concentration in presence of cells is maintained at 0.5%. ApoA-I binding assay using High Content Image Analysis is initiated by replacing with fresh medium, RPMI without Phenol Red, 0.2% BSA containing AlexaFluor®647 labeled ApoA-I for 2 h/37° C./5% CO2. Then, cells are fixed with 4% Formaldehyde in PBS (15 min, RT). Following Nuclei are stained with Hoechst solution (3 μM PBS) and Cytoplasm with Cell Mask Blue (2 μg/ml PBS), 15 min, RT. Finally the stained cells are fixed with a second round of formaldehyde treatment. Fixed stained cells are washed and kept in PBS at 4° C. and can be read immediately until one month after preparation.
The Alexa Fluor 647-labeled Apolipoprotein A-I (20 nM) was prepared as follows: Human recombinant Apolipoprotein A-I (ApoA-I) was exchanged to a buffer of 0.02 M NaHCO3 at pH 8.2 on an NAP desalting column (GE Healthcare) and brought to a concentration to 40 μM (1.13 mg/ml) by adjustment with the same buffer. The ApoA-I was fluorescently labeled by incubation with Alexa Fluor carboxylic acid succimidyl ester. (Alexa Fluor 647, Invitrogen A-20006) at a 2:1 molar ratio (Alexa to ApoA-I) for 1 h under shaking at RT. The remaining unconjugated label was removed by buffer exchange to 0.02M NaHCO3 at pH 8.2.
Imaging and data collection were performed on an OPERA confocal microplate imaging reader using a 20× water immersion objective and UV360 or 405 laser to identify the cell nuclei and a 635 laser to identify the fluorescent ApoA-I. Eight fields of view are captured per well. Image capture and analysis was performed with the Acapella software. Background fluorescence detected in control wells without ApoA-I was subtracted.
Using XLfit3 program (ID Business Solutions Ltd. UK), the model 205 for Dose Response One Site is used to calculate the EC50 values. […] Preferably, the compounds of the present invention have EC50 values in a range of 0.1 μM to 3 μM.

Assay [3] deals with T2, human CB2 receptor (Homo sapiens, UniProt P34972).
T2 construct: expressed in transfected cells; host or cells: human embryonic kidney (HEK) cells, Semliki Forest Virus system, membrane preparations
In words: CB2 receptor affinity, [3H]-CP-55,940 displacement, HEK cell membranes. The note with it: 10 μM compound, radioligand [3H]-CP-55,940. Format: binding. In outline: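 Membranes from HEK cells transiently expressing human CB2 (Semliki Forest Virus) incubated with [3H]-CP-55,940 ± compound at 10 μM. Bound ligand separated by glass-fibre filtration and counted by scintillation; reported as % inhibition at 10 μM.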

[4] abbreviates: 10 μM compound, radioligand [3H]-CP-55,940.

T1 sequence (P21554 whole entry): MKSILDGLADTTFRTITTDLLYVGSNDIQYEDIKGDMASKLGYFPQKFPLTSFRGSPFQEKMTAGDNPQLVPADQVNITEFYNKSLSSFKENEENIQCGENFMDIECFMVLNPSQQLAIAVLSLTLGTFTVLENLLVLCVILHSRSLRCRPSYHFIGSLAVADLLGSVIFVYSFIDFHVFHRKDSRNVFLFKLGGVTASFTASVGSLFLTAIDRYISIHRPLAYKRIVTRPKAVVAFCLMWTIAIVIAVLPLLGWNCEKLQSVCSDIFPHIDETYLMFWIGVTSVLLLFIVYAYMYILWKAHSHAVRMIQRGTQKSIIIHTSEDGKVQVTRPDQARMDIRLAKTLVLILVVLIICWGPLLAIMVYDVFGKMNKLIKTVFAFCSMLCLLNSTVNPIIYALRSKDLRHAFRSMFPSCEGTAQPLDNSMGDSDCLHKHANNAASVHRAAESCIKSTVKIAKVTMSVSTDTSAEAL
T2 sequence (P34972 whole entry): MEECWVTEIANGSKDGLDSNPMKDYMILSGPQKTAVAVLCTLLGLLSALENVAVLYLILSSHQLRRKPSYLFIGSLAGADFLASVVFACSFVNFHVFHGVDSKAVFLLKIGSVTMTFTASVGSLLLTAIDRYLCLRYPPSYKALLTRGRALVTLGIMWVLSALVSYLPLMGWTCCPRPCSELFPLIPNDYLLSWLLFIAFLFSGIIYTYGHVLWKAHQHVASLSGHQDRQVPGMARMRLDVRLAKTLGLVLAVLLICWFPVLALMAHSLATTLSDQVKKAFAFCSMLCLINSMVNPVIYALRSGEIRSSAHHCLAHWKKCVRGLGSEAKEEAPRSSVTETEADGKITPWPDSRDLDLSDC

For `CC(C)c1nc(CNC(=O)c2cc(-c3ccc(Cl)cc3)c(OCC(F)(F)F)cn2)cs1` [Example 6, 4-(4-chloro-phenyl)-5-(2,2,2-trifluoro-ethoxy)-pyridine-2-carboxylic acid (2-isopropyl-thiazol-4-ylmethyl)-amide], the inhibition at 10 µM in assay [1] (setting [4]) was 5%; in assay [3], 15%. For the same molecule, the concentration giving a half-maximal response (EC50) in assay [2] was determined as 7800 nM.
The corresponding values for `CCc1nc(CNC(=O)c2cnc(OCC(F)(F)F)c(-c3ccc(Cl)cc3)c2)cs1` [Example 7, 5-(4-chloro-phenyl)-N-(2-ethyl-thiazol-4-ylmethyl)-6-(2,2,2-trifluoro-ethoxy)-nicotinamide] are 22%, 6% and 1500 nM.
Turning to `CC(C)c1nc(CNC(=O)c2cnc(OCC(F)(F)F)c(-c3ccc(Cl)cc3)c2)cs1` [Example 8, 5-(4-chloro-phenyl)-N-(2-isopropyl-thiazol-4-ylmethyl)-6-(2,2,2-trifluoro-ethoxy)-nicotinamide], the inhibition at 10 µM in assay [1] was 24%; in assay [3], 10%. Moreover, in assay [2], the EC50 was 900 nM.
In the case of `CCCc1nc(CNC(=O)c2cnc(OCC(F)(F)F)c(-c3ccc(Cl)cc3)c2)cs1` [Example 9, 5-(4-chloro-phenyl)-N-(2-propyl-thiazol-4-ylmethyl)-6-(2,2,2-trifluoro-ethoxy)-nicotinamide], the results for the inhibition at 10 µM in assay [1] (setting [4]) and in assay [3] were 18% and 1%, respectively. The EC50 in assay [2] stood at 900 nM.
Regarding `CCCc1nc(CNC(=O)c2cnc(OCC3CC3)c(-c3ccc(Cl)cc3)c2)cs1` [Example 11, 5-(4-chloro-phenyl)-6-cyclopropylmethoxy-N-(2-propyl-thiazol-4-ylmethyl)-nicotinamide], the inhibition at 10 µM worked out at 25% in assay [1] and 12% in assay [3]. Further, in assay [2], the EC50 was 1500 nM.
Consider `O=C(NCc1noc(C(F)(F)F)n1)c1cnc(OCC(F)(F)F)c(-c2ccc(Cl)cc2)c1` [Example 12, 5-(4-chloro-phenyl)-6-(2,2,2-trifluoro-ethoxy)-N-(5-trifluoromethyl-[1,2,4]oxadiazol-3-ylmethyl)-nicotinamide], for which the figures for the inhibition at 10 µM in assay [1] (setting [4]) and in assay [3] were 43% and -4%, respectively. The concentration for a half-maximal effect (EC50) in assay [2] was determined as 1180 nM.
The corresponding values for `CCCn1ccc(CNC(=O)c2cnc(OCC(F)(F)F)c(-c3ccc(Cl)cc3)c2)n1` [Example 14, 5-(4-chloro-phenyl)-N-(1-propyl-1H-pyrazol-3-ylmethyl)-6-(2,2,2-trifluoro-ethoxy)-nicotinamide] are 48%, 12% and 950 nM.
In the same order, the values of `O=C(NCc1nc(C(F)(F)F)no1)c1cnc(OCC(F)(F)F)c(-c2ccc(Cl)cc2)c1` [Example 15, 5-(4-chloro-phenyl)-6-(2,2,2-trifluoro-ethoxy)-N-(3-trifluoromethyl-[1,2,4]oxadiazol-5-ylmethyl)-nicotinamide] are 45%, -6% and 840 nM.
For the molecule `O=C(NCc1nc(C(F)(F)F)no1)c1cc(-c2ccc(Cl)cc2)c(OCC2CC2)cn1` [Example 18, 4-(4-chlorophenyl)-5-(cyclopropylmethoxy)-N-((3-(trifluoromethyl)-1,2,4-oxadiazol-5-yl)methyl)picolinamide], the values for the inhibition at 10 µM in assay [1] (setting [4]) and in assay [3] were 28% and 24%, respectively. Further, in assay [2], the 50% effective concentration (EC50) was found to be 6910 nM.
The corresponding values for `O=C(NCc1nc(C(F)(F)F)no1)c1ccc(OCC(F)(F)F)c(-c2ccc(Cl)cc2)n1` [Example 22, 6-(4-chloro-phenyl)-5-(2,2,2-trifluoro-ethoxy)-pyridine-2-carboxylic acid (3-trifluoromethyl-[1,2,4]oxadiazol-5-ylmethyl)-amide] are 40%, 6% and 2270 nM.
In the same order, the values of `COc1cc(CNC(=O)c2cc(-c3ccc(Cl)cc3)c(OCC(F)(F)F)nn2)on1` [Example 23, 5-(4-chlorophenyl)-N-((3-methoxyisoxazol-5-yl)methyl)-6-(2,2,2-trifluoroethoxy)pyridazine-3-carboxamide] are 18%, 7% and 930 nM.
`COc1cc(CNC(=O)c2ncc(OCC(F)(F)F)c(-c3ccc(Cl)c(Cl)c3)n2)on1` [Example 25, 4-(3,4-dichlorophenyl)-N-((3-methoxyisoxazol-5-yl)methyl)-5-(2,2,2-trifluoroethoxy)pyrimidine-2-carboxamide]: the inhibition at 10 µM in assay [1] (setting [4]) turned out to be 11%; in assay [3], 17%. In assay [2], the half-maximal effective concentration (EC50) was found to be 1470 nM.
Consider `CC(C)c1cc(CNC(=O)c2cc(-c3ccc(Cl)cc3)c(OCC(F)(F)F)cn2)no1` [Example 27, 4-(4-chlorophenyl)-N-((5-isopropylisoxazol-3-yl)methyl)-5-(2,2,2-trifluoroethoxy)picolinamide], for which the inhibition at 10 µM in assay [1] (setting [4]) came out at 40%; in assay [3] it was 24%. Further, the 50% effective concentration (EC50) in assay [2] worked out at 970 nM.
The corresponding values for `O=C(NCc1cc(C2CC2)on1)c1cc(-c2ccc(Cl)cc2)c(OCC(F)(F)F)cn1` [Example 28, 4-(4-chlorophenyl)-N-((5-cyclopropylisoxazol-3-yl)methyl)-5-(2,2,2-trifluoroethoxy)picolinamide] are 42%, 29% and 870 nM.
On to `COc1cc(CNC(=O)c2cnc(O[C@@H](C)C(F)(F)F)c(-c3ccc(Cl)cc3)n2)on1` [Example 29, (S)-6-(4-chlorophenyl)-N-((3-methoxyisoxazol-5-yl)methyl)-5-(1,1,1-trifluoropropan-2-yloxy)pyrazine-2-carboxamide], for which the figures for the inhibition at 10 µM in assay [1] (setting [4]) and in assay [3] were 27% and 17%, respectively. Moreover, the concentration giving a half-maximal response (EC50) in assay [2] is 1870 nM.
`CC(C)c1cc(CNC(=O)c2cnc(OCC(F)(F)F)c(-c3ccc(Cl)cc3)c2)no1` [Example 31, 5-(4-chlorophenyl)-N-((5-isopropylisoxazol-3-yl)methyl)-6-(2,2,2-trifluoroethoxy)nicotinamide]: the results for the inhibition at 10 µM in assay [1] and in assay [3] were 47% and 11%, respectively. Further, the EC50 in assay [2] turned out to be 530 nM.
In the case of `COc1cc(CNC(=O)c2cnc(O[C@@H](C)C(F)(F)F)c(-c3ccc(Cl)cc3)c2)on1` [Example 34, (S)-5-(4-chlorophenyl)-N-((3-methoxyisoxazol-5-yl)methyl)-6-(1,1,1-trifluoropropan-2-yloxy)nicotinamide], the inhibition at 10 µM in assay [1] (setting [4]) was determined as 33%; in assay [3] it was 14%. In addition, the EC50 in assay [2] was determined as 770 nM.
In the same order, the values of `C[C@H](Oc1ncc(C(=O)NCc2nc(C(F)(F)F)no2)cc1-c1ccc(Cl)cc1)C(F)(F)F` [Example 38, (S)-5-(4-chlorophenyl)-N-((3-(trifluoromethyl)-1,2,4-oxadiazol-5-yl)methyl)-6-(1,1,1-trifluoropropan-2-yloxy)nicotinamide] are 32%, -2% and 950 nM.
In the same order, the values of `CC(C)c1cc(CNC(=O)c2cc(-c3ccc(Cl)cc3)c(OCC(F)(F)F)nn2)no1` [Example 42, 5-(4-chloro-phenyl)-6-(2,2,2-trifluoro-ethoxy)-pyridazine-3-carboxylic acid (5-isopropyl-isoxazol-3-ylmethyl)-amide] are 34%, 13% and 800 nM.
